Reference: patent EP0085842A1, “Antimycosic agents” (BAYER AG, priority 1982, dated 1983)
In brackets after ≈: the same amount, converted by molar mass.

What was measured:
[1] = system: Trichophyton mentagrophytes; experiment: Antimycotic in-vivo activity (local) in experimental guinea pig trichophytosis; design: species or system Meerschweinchen; key: +++++: sehr gute Wirkung = keine Infektionszeichen am 12.-15.Tag p.i.; ++++: gute Wirkung = geringe Rötung, vereinzelt Schuppen; +++: Wirkung = Rötung, Schuppung, ohne Haarausfall; ++: schwache Wirkung = Rötung, Schuppung, Haarausfall; +: Spur Wirkung = flächiger Haarausfall, entzündliche Hautreaktion
[2] = system: Aspergillus fumigatus; experiment: Antimycotic in-vitro activity, serial dilution test (MIC); assay type: cell-based; conditions: Sabouraud's milieu d'epreuve, 20°C, 96 h, inoculum 5 x 10^4 Keime/ml, read-out: MHK-Werte in γ/ml Nährmedium Aspergillus fumigatus
Procedure: (§1) Versuchsbeschreibung: • Die in-vitro-Prüfungen wurden im Reihenverdünnungstest mit Keiminokula von durchschnittlich 5 x 10^4 Keimen/ml Substrat durchgeführt. Als Nährmedium dienten • a) für Dermatophyten und Schimmelpilze: Sabouraud's milieu d'epreuve • b) für Hefen: • Fleischextrakt-Traubenzucker-Bouillon.
(§2) Die Bebrütungstemperatur betrug 20°C, die Bebrütungsdauer lag bei 24 bis 96 Stunden bei Hefen und 96 Stunden bei Dermatophyten und Schimmelpilzen.

[3] = system: Microsporum canis; experiment: as above; assay type: cell-based; conditions: Sabouraud's milieu d'epreuve, 20°C, 96 h, inoculum 5 x 10^4 Keime/ml, read-out: MHK-Werte in γ/ml Nährmedium Microsporum canis
Procedure: as §1, §2

[4] = system: Torulopsis glabrata; experiment: as above; assay type: cell-based; conditions: Nakaseomyces glabratus; Fleischextrakt-Traubenzucker-Bouillon, 20°C, 24 to 96 h, inoculum 5 x 10^4 Keime/ml; read-out: MHK-Werte in γ/ml Nährmedium Torulopsis glabrata
Procedure: as §1, §2

[5] = system: Candida albicans; experiment: as above; assay type: cell-based; conditions: Fleischextrakt-Traubenzucker-Bouillon, 20°C, 24 to 96 h, inoculum 5 x 10^4 Keime/ml, read-out: MHK-Werte in γ/ml Nährmedium Candida albicans
Procedure: as §1, §2

[6] = system: Candida-Zellen; experiment: Antimycotic in-vivo activity (oral) in mouse candidosis; design: species or system Mäuse vom Typ SPF-CF1; conditions: for Wirkung: mice infected i.v. with Candida, oral 50 - 100 mg/kg one hour before and seven hours after infection, survivors on day 6 p.i.; for Wirkung compared with known compounds (A), (B), (C) and (D): mouse candidosis, oral 50 - 100 mg/kg
Procedure: Mäuse vom Typ SPF-CF1 wurden intravenös mit 1 - 2 x 10^6 logarithmisch wachsenden Candida-Zellen, die in physiologischer Kochsalzlösung suspendiert werden, infiziert. Eine Stunde vor und sieben Sunden nach der Infektion werden die Tiere mit jeweils 50 - 100 mg/kg Körpergewicht der Präparate oral behandelt.
Unbehandelte Tiere starben 3 bis 6 Tage post infektionem. Die Überlebensrate am 6. Tag post infektionem betrug bei unbehandelten Kontrolltieren etwa 5 %.
+++++ = sehr gute Wirkung = 90 % Überlebende am 6.Tag p.i. ++++ = gute Wirkung = 80 % Überlebende am 6.Tag p.i. +++ = Wirkung = 60 % Überlebende am 6.Tag p.i. ++ = schwache Wirkung = 40 % Überlebende am 6.Tag p.i. + = Spur Wirkung = unter 40 % Überlebende am 6.Tag p.i. k.W. = keine Wirkung

[7] = system: Trichophyton mentagr.; experiment: Antimycotic in-vitro activity, serial dilution test (MIC); assay type: cell-based, Trichophyton mentagrophytes; conditions: Sabouraud's milieu d'epreuve, 20°C, 96 h, inoculum 5 x 10^4 Keime/ml, read-out: MHK-Werte in γ/ml Nährmedium Trichophyton mentagr.
Procedure: as §1, §2

[8] = local treatment, trichophytosis model
[9] = local, 1 x daily from day 3 p.i., 15 %ige Lösung in Dimethylsulfoxid:Glycerin = 1:4, infection signs day 12-15 p.i.

Row | SMILES | Wirkung [1, 8] | Wirkung [1, 9] | MIC [2] | MIC [3] | MIC [4] | MIC [5] | Wirkung [6] | Wirkung compared with known compounds (A), (B), (C) and (D) [6] | MIC [7]
1 | CC(C)(CF)C(O)(COc1ccc(Cl)cc1)Cn1cncn1 (stereo not shown) [Beispiel 7] | Wirkung bis gute Wirkung | +++ | < 1 µg/mL | 2 µg/mL (≈ 6.1 µM) | < 1 µg/mL | < 1 µg/mL | +++++ (sehr gute Wirkung = 90 % Überlebende am 6.Tag p.i.) | bessere Wirkung | < 1 µg/mL
2 | CC(CF)(CF)C(O)(COc1ccc(Cl)cc1Cl)Cn1cncn1 (stereo not shown) [Beispiel 14] | Wirkung bis gute Wirkung | ++++ | 4 µg/mL (≈ 10.5 µM) | < 1 µg/mL | 4 µg/mL (≈ 10.5 µM) | < 1 µg/mL | +++++ (sehr gute Wirkung = 90 % Überlebende am 6.Tag p.i.) | bessere Wirkung | < 1 µg/mL
3 | CC(CF)(CF)C(O)(CCc1ccc(Cl)cc1)Cn1cncn1 (stereo not shown) [Beispiel 28] | Wirkung bis gute Wirkung | ++++ | < 1 µg/mL | 2 µg/mL (≈ 5.82 µM) | 2 µg/mL (≈ 5.82 µM) | 2 µg/mL (≈ 5.82 µM) | ++++ (gute Wirkung = 80 % Überlebende am 6.Tag p.i.) | bessere Wirkung | < 1 µg/mL
4 | CC(CF)(CF)C(O)(COc1ccc(Cl)cc1Cl)Cn1ccnc1 (stereo not shown) [Beispiel 32] | Wirkung bis gute Wirkung | +++ | 32 µg/mL (≈ 84.4 µM) | 16 µg/mL (≈ 42.2 µM) | 8 µg/mL (≈ 21.1 µM) | 2 µg/mL (≈ 5.27 µM) | ++++ (gute Wirkung = 80 % Überlebende am 6.Tag p.i.) | bessere Wirkung | 2 µg/mL (≈ 5.27 µM)
5 | CC(C)(CF)C(O)(COc1ccc(F)cc1)Cn1cncn1 (stereo not shown) [Beispiel 1, 4-Fluor-2-(4-fluorphenoxymethyl)-3,3-dimethyl-1-(1,2,4-triazol-1-yl)-butan-2-ol] |  | ++ | 8 µg/mL (≈ 25.7 µM) | 8 µg/mL (≈ 25.7 µM) | 16 µg/mL (≈ 51.4 µM) | < 1 µg/mL | +++ (Wirkung = 60 % Überlebende am 6.Tag p.i.) | bessere Wirkung | 4 µg/mL (≈ 12.8 µM)
6 | CC(CF)(CF)C(O)(COc1ccc(Cl)cc1)Cn1cncn1 (stereo not shown) [Beispiel 13] | Wirkung bis gute Wirkung | +++ | 4 µg/mL (≈ 11.6 µM) | 2 µg/mL (≈ 5.78 µM) | 8 µg/mL (≈ 23.1 µM) | < 1 µg/mL | +++++ (sehr gute Wirkung = 90 % Überlebende am 6.Tag p.i.) | bessere Wirkung | < 1 µg/mL
7 | CC(C)(CF)C(O)(CCc1ccc(Cl)cc1)Cn1cncn1 (stereo not shown) [Beispiel 25] | Wirkung bis gute Wirkung | ++++ | < 1 µg/mL | < 1 µg/mL | 2 µg/mL (≈ 6.14 µM) | < 1 µg/mL | +++ (Wirkung = 60 % Überlebende am 6.Tag p.i.) | bessere Wirkung | < 1 µg/mL
8 | Cc1cc(Cl)ccc1OCC(O)(Cn1cncn1)C(C)(CF)CF (stereo not shown) [Beispiel 15] | Wirkung bis gute Wirkung | ++++ | 8 µg/mL (≈ 22.2 µM) | < 1 µg/mL | 4 µg/mL (≈ 11.1 µM) | < 1 µg/mL | ++++ (gute Wirkung = 80 % Überlebende am 6.Tag p.i.) | bessere Wirkung | < 1 µg/mL
9 | CC(C)(CF)C(O)(CCc1ccc(Cl)cc1Cl)Cn1cncn1 (stereo not shown) [Beispiel 26] | Wirkung bis gute Wirkung | +++ | < 1 µg/mL | 2 µg/mL (≈ 5.55 µM) | 8 µg/mL (≈ 22.2 µM) | 4 µg/mL (≈ 11.1 µM) | +++ (Wirkung = 60 % Überlebende am 6.Tag p.i.) | bessere Wirkung | < 1 µg/mL
10 | CC(C)(CF)C(O)(CSc1ccc(Cl)cc1)Cn1cncn1 (stereo not shown) [Beispiel 10] | Wirkung bis gute Wirkung | ++++ | < 1 µg/mL | < 1 µg/mL | 16 µg/mL (≈ 46.5 µM) | 4 µg/mL (≈ 11.6 µM) | ++++ (gute Wirkung = 80 % Überlebende am 6.Tag p.i.) | bessere Wirkung | < 1 µg/mL
11 | C=CC(C)(C)C(O)(COc1ccc(-c2ccccc2)cc1)Cn1ccnc1 (stereo not shown) [Beispiel 5, 4-(4-Biphenylyloxymethyl)-3,3-dimethyl-4-hydroxy-5-(imidazol-1-yl)-1-penten] | Wirkung bis gute Wirkung | +++ | < 1 µg/mL | < 1 µg/mL | < 1 µg/mL | < 1 µg/mL | ++++ (gute Wirkung = 80 % Überlebende am 6.Tag p.i.) | bessere Wirkung | < 1 µg/mL
12 | CC(C)(CF)C(O)(COc1ccc(Cl)cc1Cl)Cn1cncn1 (stereo not shown) [Beispiel 9] | Wirkung bis gute Wirkung | ++++ | 8 µg/mL (≈ 22.1 µM) | 2 µg/mL (≈ 5.52 µM) | 4 µg/mL (≈ 11 µM) | 4 µg/mL (≈ 11 µM) | +++ (Wirkung = 60 % Überlebende am 6.Tag p.i.) | bessere Wirkung | < 1 µg/mL
13 | Cc1cc(Cl)ccc1OCC(O)(Cn1cncn1)C(C)(C)CF (stereo not shown) [Beispiel 8] | Wirkung bis gute Wirkung | +++ | 4 µg/mL (≈ 11.7 µM) | < 1 µg/mL | 2 µg/mL (≈ 5.85 µM) | < 1 µg/mL | +++ (Wirkung = 60 % Überlebende am 6.Tag p.i.) | bessere Wirkung | < 1 µg/mL
14 | C=CC(C)(C)C(O)(COc1ccc(Cl)cc1)Cn1cncn1 (stereo not shown) [Beispiel 22] |  | ++ | < 1 µg/mL | 4 µg/mL (≈ 12.4 µM) | 16 µg/mL (≈ 49.7 µM) | 2 µg/mL (≈ 6.21 µM) | +++++ (sehr gute Wirkung = 90 % Überlebende am 6.Tag p.i.) | bessere Wirkung | < 1 µg/mL
